Test results: patent US20090175795A1, “CHIMERIC THERAPEUTIC AGENTS” (Amprotein Corporation, priority 2005, published 2009)

Columns and labels:
[1] = effect on body weight, 7-day ip injection; format: in vivo, mouse; settings: for Body weight (X ± SD): n = 5, in g (unit assumed)
Experimental: The effects of GLP1-Fc-leptin on body weight were studied. Mice were injected with 0.1 mg of GLP1-Fc-leptin or human IgG1 Fc fragment in the same manner described above daily for seven days. At days 1 and 7, the body weight of each […] was measured and recorded. […] The body weight was measured on days 1, 4, and 7. Effects of leptin on body weight were studied in the same manner described above. More specifically, mice were injected ip. with 0.1 mg/mouse of human recombinant leptin (R&D Systems, Cat# 398-LP) or human IgG Fc twice a day (9 am and 5 pm) for 7 days.

blood glucose [2] = assay: everyday blood glucose level during the 7-day injection period; format: in vivo, mouse; settings: 0.1 mg daily; for Glucose: one hour after injection, n = 5
Experimental: In the above experiments, during the 7-day period, blood glucose levels of each mouse were measured and recorded on each day one hour after injection of GLP1-Fc-leptin (0.1 mg) or IgG1 Fc fragment everyday in the morning.

blood glucose [3] = assay: GTT assay in rats; format: in vivo, rat; settings: small numbers
Experimental: (§1) Similarly GTT assays were also conducted in rats and rabbits in small numbers. All the results support the inhibition of GLP1-Fc-leptin on blood glucose level.

blood glucose [4] = assay: GTT assay in rabbits; format: in vivo, rabbit; settings: small numbers
Experimental: as §1

blood glucose [5] = assay: intraperitoneal glucose tolerance test (ip GTT) in mice; format: in vivo, mouse; design: Blood glucose (X ± SD): unit not given here; settings: for effect on blood glucose levels in ip GTT: P<0.05
Experimental: (§2) First, intraperitoneal glucose tolerance test (ip GTT) was conducted to test GLP -Fc-leptin's action on glucose-dependent insulin secretion. Briefly, mouse blood glucose was measured using one-touch blood glucose strips. A blood sample was obtained from a mouse through tail bleeding. Then, 0.04, 0.1, or 0.2 mg of GLP1-Fc-leptin or control protein human IgG1 Fc fragment were injected ip. Immediately after the injections, 0.2 ml of saturated glucose water solution was injected ip into the mouse. One and two hours later, another blood sample was collected in the same manner for glucose measurement.

blood glucose [6] = assay: IP glucose tolerance test repeated at day-1 and day-2 after one injection (long-term effect); format: in vivo, mouse; settings: for Blood glucose (X ± SD): one injection 0.2 mg, n = 5
Experimental: as §2, with “measurement. […] The results are summarized in Tables 1-4 below: The above experiment was repeated with GLP1-Fc-leptin (0.2 mg) at day-1 before the glucose tolerance test. A IP glucose tolerance test was conducted twice at day-1 and day-2 respectively.” for “measurement.”

Substance: GLP1-Fc-leptin: fusion protein GLP-1-3xGly-IgG1 Fc-leptin (SEQ ID NO:5), expressed in CHO cells
- body weight lost ([1]; 0.1 mg daily for seven days, at day 7, p<0.05): 11.3%
- Body weight (X ± SD) ([1]; 0.1 mg ip daily for seven days, day 1): 24.7 ± 1.3
- Body weight (X ± SD) ([1]; 0.1 mg ip daily for seven days, day 4): 23.7 ± 2.2
- Body weight (X ± SD) ([1]; 0.1 mg ip daily for seven days, day 7): 21.9 ± 1.4
- everyday blood glucose levels versus IgG1 Fc fragment (blood glucose [2]; 7-day period): lower blood glucose levels
- Glucose (blood glucose [2]; day 1): 98.0 ± 13.2 mg/dL
- Glucose (blood glucose [2]; day 2): 119.0 ± 25.8 mg/dL
- Glucose (blood glucose [2]; day 3): 91.4 ± 44.6 mg/dL
- Glucose (blood glucose [2]; day 4): 116.0 ± 34.3 mg/dL
- Glucose (blood glucose [2]; day 5): 95.6 ± 33.9 mg/dL
- Glucose (blood glucose [2]; day 6): 102.3 ± 25.7 mg/dL
- Glucose (blood glucose [2]; day 7): 160.4 ± 18.6 mg/dL
- effect on blood glucose level in GTT (blood glucose [3]): inhibition
- effect on blood glucose level in GTT (blood glucose [4]): inhibition
- Blood glucose (X ± SD) (blood glucose [5]; 0.04 mg ip, 1 hour after IP glucose injection, n = 5): 275.8 ± 154.0
- Blood glucose (X ± SD) (blood glucose [5]; 0.04 mg ip, 2 hour after IP glucose injection, n = 5): 98.0 ± 22.7
- Blood glucose (X ± SD) (blood glucose [5]; 0.04 mg ip, before IP glucose injection, n = 5): 98.8 ± 29.2
- Blood glucose (X ± SD) (blood glucose [5]; 0.1 mg ip, 1 hour after IP glucose injection, n = 4): 108.8 ± 44.0
- Blood glucose (X ± SD) (blood glucose [5]; 0.1 mg ip, 2 hour after IP glucose injection, n = 4): 83.0 ± 21.6
- Blood glucose (X ± SD) (blood glucose [5]; 0.1 mg ip, before IP glucose injection, n = 4): 67.3 ± 32.1
- effect on blood glucose levels in ip GTT (blood glucose [5]; 0.1 mg): significantly inhibited
- Blood glucose (X ± SD) (blood glucose [5]; 0.2 mg ip, 1 hour after IP glucose injection, n = 5): 113.0 ± 16.2
- Blood glucose (X ± SD) (blood glucose [5]; 0.2 mg ip, 2 hour after IP glucose injection, n = 5): 82.0 ± 6.2
- Blood glucose (X ± SD) (blood glucose [5]; 0.2 mg ip, before IP glucose injection, n = 5): 84.4 ± 20.5
- effect on blood glucose levels in ip GTT (blood glucose [5]; 0.2 mg): significantly inhibited
- Blood glucose (X ± SD) (blood glucose [6]; Day-1 GTT, 1 hour after IP glucose injection): 113.0 ± 16.2
- Blood glucose (X ± SD) (blood glucose [6]; Day-1 GTT, 2 hour after IP glucose injection): 82.0 ± 6.2
- Blood glucose (X ± SD) (blood glucose [6]; Day-1 GTT, before IP glucose injection): 84.4 ± 20.5
- Blood glucose (X ± SD) (blood glucose [6]; Day-2 GTT, 1 hour after IP glucose injection): 106.2 ± 25.7
- Blood glucose (X ± SD) (blood glucose [6]; Day-2 GTT, 2 hour after IP glucose injection): 95.8 ± 21.1
- Blood glucose (X ± SD) (blood glucose [6]; Day-2 GTT, before IP glucose injection): 92.6 ± 25.3
- duration of inhibition of blood glucose level (blood glucose [6]; one injection of 0.2 mg): at least two

Substance: Human leptin: human recombinant leptin (R&D Systems, Cat# 398-LP)
- weight loss relative to GLP1-Fc-Leptin ([1]; 0.1 mg/mouse ip twice a day for 7 days): less than half of the weight loss that GLP1-Fc-Leptin induced
- Body weight (X ± SD) ([1]; leptin study, 0.1 mg/mouse ip twice a day for 7 days, day 1): 20.9 ± 2.0
- Body weight (X ± SD) ([1]; leptin study, 0.1 mg/mouse ip twice a day for 7 days, day 4): 20.7 ± 2.3
- Body weight (X ± SD) ([1]; leptin study, 0.1 mg/mouse ip twice a day for 7 days, day 7): 20.1 ± 2.1
- weight loss when used alone ([1]; our animal model, pilot experiments, used alone): did not induce significant weight loss
